This is an account of results in patent publication US8703698B2, “Compositions and methods for treating atherosclerosis” (The University of Chicago, priority 2003, dated 2014).

Where no end group is shown, it is not given here. [ ]: non-standard residue; d: D form.

For one experiment, the system named is J774 macrophages. Put plainly: [3H]cholesterol efflux from cholesterol-loaded J774 macrophages in tissue culture. The note with it: for cholesterol export enhancing activity, time course (FIG. 9) / cholesterol export enhancing activity relative to the human SAA1.1 78-96 containing liposomal formulation (FIG. 9): liposomal formulations, mouse J774 cells; for rate of [3H]cholesterol efflux into medium containing HDL: pre-incubation with liposomes containing 0.5 μM peptide, HDL as acceptor. Format: cell-based, mouse.

Experiment [1] deals with [3H]-cholesterol-loaded J774 macrophages. Put plainly: In vivo cholesterol efflux to plasma in mice injected with [3H]-cholesterol-loaded J774 macrophages. The protocol:
In these experiments, in vivo cholesterol export was determined in mice injected with J774 macrophages cholesterol-loaded with RBC membranes and [^3H]-cholesterol. Two hundred thousand macrophages in 100:1 PBS were injected into each mouse through the tail vein. At various time points thereafter, approximately 25:1 of blood were collected from the tail vein of each animal into heparinized capillary tubes. The tubes were then centrifuged for 5 minutes in an Adams Autocrit Centrifuge to separate red blood cells from plasma. Cholesterol efflux was determined by measuring the appearance of [^3H]-cholesterol in plasma by scintillation spectrometry. To study whether export of cholesterol from J774 cells to plasma was influenced by non-liposome formulated D-27mer peptide (SEQ ID NO:10), 24 hours after injection of cholesterol-loaded J774 macrophages into mice, the same animals received, by intravenous injection, 30 μg, 60 μg, 150 μg, 225 μg, 300 μg or 600 μg of D-27mer. All these amounts of D-peptides were dissolved in 100:l of phosphate buffered saline and injected through the tail vein of each animal.
Additional in vivo studies have also been conducted wherein mice were first injected intravenously with [^3H]cholesterol-laden macrophages and then injected 24 hours later with liposomes containing 0.5 μM of synthetic peptides corresponding to amino acid residues 1-20, 21-50, 51-80 or 74-103 of murine SAA2.1. Results from this study are depicted in FIG. 1. At time points indicated in the graph of FIG. 1, approximately 25 μl of blood were collected from the tail vein of each animal. The blood samples were centrifuged to separate the red blood cells from the plasma and the [^3H]-cholesterol in plasma was determined by scintillation counting. Results are mean±SEM of four determinations.
To determine cholesterol export in vivo, J774 macrophages were cholesterol-loaded with red blood cell membranes and [^3H]-cholesterol as described above. Cells were washed four times with PBS/BSA and then detached from the culture dishes. Five million cells in 200 μl DMEM were injected into control mice or inflamed mice through the tail vein. At various time points, approximately 25 μl of blood were collected from the tail vein of each animal into heparinized capillary tubes and then centrifuged for 5 minutes in an Adams Autocrit Centrifuge to separate red blood cells from plasma. Cholesterol efflux was determined by measuring the appearance of [^3H]-cholesterol in plasma by scintillation spectrometry.
J774 cells cultured in 6-well plates were enriched with cholesterol by incubating with red blood cell (RBC) membrane fragments (175:g as cholesterol) that had been previously labeled with 0.5:Ci/ml [^3H]-cholesterol at 37° C. for 24 hours in 0.2% bovine serum albumin (BSA). After loading with the labelled RBC membrane for 6 hours, cells were then washed with phosphate-buffered saline/BSA (PBS/BSA) three times followed by an 18 hour equilibration period during which monolayers were exposed to DMEM/BSA. To determine cholesterol export in vivo, J774 macrophages were cholesterol-loaded with RBC membranes and [^3H]-cholesterol as described previously above. Cells were washed four times with PBS/BSA and then detached from the culture dishes. Two hundred thousand cells in 100:l PBS were injected into mice through the tail vein. At various time points thereafter, approximately 25:l of blood were collected from the tail vein of each animal into heparinized capillary tubes. These tubes were then centrifuged for 5 minutes in an Adams Autocrit Centrifuge to separate red blood cells from plasma. Cholesterol efflux was determined by measuring the appearance of [^3H]-cholesterol in plasma by scintillation spectrometry. […]

Experiment [2] has as its system cholesterol ester hydrolase. Put plainly: Rate of hydrolysis of cholesteryl ester in cholesterol-laden J774 cells (cholesterol ester hydrolase activity). Type of experiment: cell-based, murine. The note with it: liposomes containing 0.5 μl synthetic peptide; J774 cells; Sandoz 58-035 present. Here is the method: Identification of the domain of SAA2.1 that is responsible for enhancing cholesterol ester hydrolase activity was performed in J774 cells preloaded with radio-labeled cholesteryl esters. These experiments were performed in the presence of Sandoz 58-035, an inhibitor of acyl CoA:cholesterol acyl transferase activity, to prevent re-esterification of liberated cholesterol and [^14C]oleate. Incubations proceeded for times ranging from 0 to 24 hours, following which the remaining quantities of [^14C]-labeled cholesteryl oleate in cells were measured to determine the rate of hydrolysis of cholesteryl ester. […] However, an equivalent amount of liposomes containing the synthetic peptide corresponding to amino acid residues 74-103 of murine SAA2.1 caused a 3-fold increase in cholesterol ester hydrolase activity in these cholesterol-laden murine cells. Newly confluent J774 cells were labeled with [^14C]-oleate during cholesterol loading with red blood cell membranes as described above. Cells were then incubated for up to 24 hours with 2 mL of DMEM containing 5% LPDS and 50 μg/mL of either native HDL, SAA-HDL, liposomes containing 2 μmoles of apoA-1, SAA1.1 or 2.1, or liposomes containing 0.5:mol synthetic peptides corresponding to amino acid residues 1-20 (SEQ ID NO:1), 21-50 (SEQ ID NO:2), 51-80 (SEQ ID NO:3) and 74-103 (SEQ ID NO:4) of murine SAA2.1. To determine the rate of cholesteryl ester hydrolysis, 2 μg/mL of the acyl CoA:cholesterol acyl transferase inhibitor Sandoz 58-035 (propanimide, 3-(decyldimethylsilyl)-N-[2-(4-methylphenyl)-1-phenylethyl]-(9Cl) was added during incubation with lipoproteins or liposomes to prevent […] and free cholesterol. To examine whether or not the rate of cholesteryl ester hydrolysis involved the lysosomal cholesteryl ester hydrolase, the cells were cultured in the presence of 50 μg/mL of either native HDL and chloroquine or SAA-HDL and chloroquine (100:M). Chloroquine is an agent that neutralizes the lysosomal proton gradient. At various time points, cellular lipids were extracted and analyzed for cholesteryl ester radioactivity as described above.

In experiment [3] the target is T1, acyl CoA:cholesterol acyl transferase (Mus musculus, UniProt Q61263).
T1 construct: host or cells: J774 mouse macrophages, cholesterol-loaded
T1 sequence (Q61263 1-540): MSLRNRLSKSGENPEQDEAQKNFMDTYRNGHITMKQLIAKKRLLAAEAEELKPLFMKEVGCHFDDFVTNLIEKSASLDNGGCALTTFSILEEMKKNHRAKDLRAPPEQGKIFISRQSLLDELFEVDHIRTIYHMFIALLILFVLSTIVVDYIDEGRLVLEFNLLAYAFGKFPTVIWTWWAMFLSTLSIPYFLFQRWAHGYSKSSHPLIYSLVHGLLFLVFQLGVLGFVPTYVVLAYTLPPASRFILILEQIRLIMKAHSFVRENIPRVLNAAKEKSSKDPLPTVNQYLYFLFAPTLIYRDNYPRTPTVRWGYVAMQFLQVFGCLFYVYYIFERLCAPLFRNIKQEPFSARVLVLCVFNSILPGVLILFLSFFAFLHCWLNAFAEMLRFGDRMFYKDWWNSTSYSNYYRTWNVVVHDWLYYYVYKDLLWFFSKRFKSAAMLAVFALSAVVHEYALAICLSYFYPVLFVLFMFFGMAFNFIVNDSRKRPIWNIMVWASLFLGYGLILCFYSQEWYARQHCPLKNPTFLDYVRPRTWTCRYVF
The experiment in a line: Incorporation of [14C]oleate into cholesteryl ester in cholesterol-laden macrophages (ACAT activity). Format: cell-based, murine. The note with it: liposomes containing 0.5 μM synthetic peptide; 6 hour incubation; cholesterol-laden murine cells. The protocol:
The incorporation of [^14C]oleate into cholesteryl ester was used as a measure of acyl CoA:cholesterol acyl transferase activity to identify compositions inhibiting the enzyme activity. The relative acyl CoA:cholesterol acyl transferase activity was determined in cholesterol-laden murine cells that had been cultured in medium in the absence of liposomes or in the presence of protein-free liposomes or liposomes containing 0.5 μM synthetic peptides corresponding to amino acids 1-20, 21-50, 51-80 and 74-103 of murine SAA2.1.
To load the cells with cholesterol, nearly confluent mono-layers were washed 3 times with phosphate buffered saline containing 2 mg/mL fatty acid-free bovine serum albumin (PBS-BSA) and incubated for 5 hours in DMEM supplemented with 5% lipoprotein-depleted serum (LPDS) (d>1.25 g/mL) and 175 μg of red blood cell membrane cholesterol. For the purpose of pool equilibration of added cholesterol, cell cultures were rinsed twice with PBS-BSA and incubated overnight in DMEM containing 5% LPDS. The relative activity of acyl CoA:cholesterol acyl transferase was determined in cholesterol-laden cells that had been cultured in medium containing no liposomes, protein-free liposomes or liposomes containing 0.5:M synthetic peptides corresponding to amino acid residues 1-20 (SEQ ID NO:1), 21-50 (SEQ ID NO:2), 51-80 (SEQ ID NO:3) or 74-103 (SEQ ID NO:4) of murine SAA2.1, respectively. Following 3 hours incubation with the above media, [^14C]-oleate was added and the cells were incubated for another 3 hour period (Mendez et al. J. Clin. Invest. 1994 94:1698-1705; Oram et al. Arterioscler. Thromb. 1991 11:403-414). Cells were chilled on ice and washed twice with PBS-BSA and twice with PBS. After addition of [^3H]-cholesteryl oleate (6000 dpm/well) as an internal standard, the lipids were extracted from the labeled cells and analyzed by thin-layer chromatography as described by Mendez et al. (J. Clin. Invest. 1994 94:1698-1705) and Oram et al. (Arterioscler. Thromb. 1991 11:403-414). The radioactivity in appropriate spots was measured to determine the incorporation of radioactivity into cholesteryl esters as a measure of acyl CoA:cholesterol acyl transferase activity.

As to “AANKWGRSGRDPNHFR [SEQ ID NO:28, residues 81-96 of human SAA2.1]”, the “cholesterol export enhancing activity, time course (FIG. 9)” value with J774 macrophages was “little to no cholesterol export enhancing activity”.
In the case of “ADQAANKWGRSGRDPNHFR [SEQ ID NO:11, residues 78-96 of human SAA2.1]”, the “cholesterol export enhancing activity relative to the human SAA1.1 78-96 containing liposomal formulation (FIG. 9)” value in the experiment with J774 macrophages was “about half”.
As for “ADQEANRHGRSGKDPNYYRPPGLPAKY [SEQ ID NO:10] ([dA][dD][dQ][dE][dA][dN][dR][dH]G[dR][dS]G[dK][dD][dP][dN][dY][dY][dR][dP][dP]G[dL][dP][dA][dK][dY]) [residues 77-103 of murine SAA1.1, all D-amino acids]”, the “duration of increase in cholesterol efflux (FIG. 12)” value in experiment [1] (following oral and intravenous administration) is “at least 4 days”. Also, the “radiolabeled cholesterol exported in the plasma (FIG. 15)” value in experiment [1] (non-liposome formulated, in 100 μl PBS, intravenous, 15 μg/mouse peptide or 75 μg/mouse full length protein) is given as “caused an increase in cholesterol exported in the plasma”. Also, in experiment [1] (non-liposome formulated, in PBS, intravenous, 30 to 600 μg per mouse), the “[3H]-cholesterol efflux as plasma radioactivity (dpm) (FIG. 11)” value was “dose-dependent increase”. Moreover, the “efficacy on oral administration to fasted animals versus animals receiving food (FIG. 16)” value in experiment [1] (non-liposome formulated, oral, 300 μg) was “further enhanced”. The “cholesterol exported to the plasma at 24 hours, PBS containing 5% weight/volume glucose versus PBS (FIG. 13)” value in experiment [1] (non-liposome formulated, oral, same dose) is reported as “higher”. Further, the “efficacy with smaller volume vehicle containing the same amount of peptide (FIG. 16)” value in experiment [1] (oral, 300 μg in 100 μl versus 500 μl PBS, fasted and fed mice) is “efficacy was enhanced”.
With “DQAANKWGRSGRDPNHFR [SEQ ID NO:26, residues 79-96 of human SAA2.1]”, in the experiment with J774 macrophages, the “cholesterol export enhancing activity relative to the human SAA1.1 78-96 containing liposomal formulation (FIG. 9)” value is reported as “about half”.
As to “QAANKWGRSGRDPNHFR [SEQ ID NO:27, residues 80-96 of human SAA2.1]”, the “cholesterol export enhancing activity, time course (FIG. 9)” value with J774 macrophages was “little to no cholesterol export enhancing activity”.
In the case of “RSFFSFLGEAFDGARDMWRAYSD [SEQ ID NO:6, synthetic peptide, residues 1-23 of human SAA1.1 and/or SAA2.1]”, the “[3H]-cholesterol efflux as plasma radioactivity (dpm) (FIG. 1)” value in experiment [1] (intravenous liposomes containing 0.5 μM peptide, 24 hours after macrophages) is “promoted in vivo cholesterol export”.
As for “TDMKEANWKNSDKYFHARGNYDAAQRGPGG [SEQ ID NO:2, synthetic peptide, residues 21-50 of murine SAA2.1]”, the “rate of [3H]cholesterol efflux into medium containing HDL” value with J774 macrophages was “did not cause any significant changes”. In addition, the “rate of hydrolysis of [14C]-labeled cholesteryl oleate versus protein-free liposomes” value in experiment [2] was “no significant differences”. Moreover, the “relative acyl CoA:cholesterol acyl transferase activity” value in experiment [3] is “no significant effect”.
“VWAAEKISDGREAFQEFFGRGHEDTIADQE [SEQ ID NO:3, synthetic peptide, residues 51-80 of murine SAA2.1]”: the “rate of [3H]cholesterol efflux into medium containing HDL” value with J774 macrophages was “did not cause any significant changes”. In addition, in experiment [2], the “rate of hydrolysis of [14C]-labeled cholesteryl oleate versus protein-free liposomes” value is on record as “no significant differences”. For the same sequence, the “relative acyl CoA:cholesterol acyl transferase activity” value in experiment [3] was “no significant effect”.
